Reference: patent publication US11254663B2 (BRISTOL-MYERS SQUIBB COMPANY, priority 2019, dated 2022)
Where two headings read alike, the source gives them in different places.

Molecular target: FXR (Homo sapiens (Human), UniProt Q96RI1)
Test: transient human FXR/Gal4-luciferase reporter assay
Format: cell-based
Procedure, shortened: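 HEK293 cells stably carrying a 5×Gal4 response element–firefly luciferase reporter were transiently transfected overnight with a Gal4 DBD–human FXR LBD fusion plasmid. Compound was added in DMSO and cells were incubated overnight at 37 °C, 5% CO2. Activity was read as Steady-Glo luminescence.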

[1] = Gal4-hFXR fusion construct, HEK293 reporter cells, response relative to 8 μM GW-4064

Sequence of FXR (Q96RI1 262-486): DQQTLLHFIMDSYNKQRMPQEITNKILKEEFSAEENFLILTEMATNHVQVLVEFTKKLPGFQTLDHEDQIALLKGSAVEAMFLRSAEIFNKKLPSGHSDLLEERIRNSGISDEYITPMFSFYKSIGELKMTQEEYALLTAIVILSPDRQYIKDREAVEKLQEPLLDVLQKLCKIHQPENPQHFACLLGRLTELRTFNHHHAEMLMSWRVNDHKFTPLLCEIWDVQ

Row | Structure (SMILES) | EC50 [1] | EC50
1 | N#Cc1cccc(-c2cccc(N(CC34CCC(c5nc(C6CC6)no5)(CC3)CC4)C(=O)C34CC(F)(C3)C4)c2)n1 [Example 292, N-(3-(6-cyanopyridin-2-yl)phenyl)-N-((4-(3-cyclopropyl-1,2,4-oxadiazol-5-yl)bicyclo[2.2.2]octan-1-yl)methyl)-3-fluorobicyclo[1.1.1]pentane-1-carboxamide] | 148 nM | 
2 | CC(C)(C)c1nc(C23CCC(CN(C(=O)C45CC(F)(C4)C5)c4cc(-c5ccc(OC(F)F)cn5)ccn4)(CC2)CC3)no1 [Example 544, N-((4-(5-(tert-butyl)-1,2,4-oxadiazol-3-yl)bicyclo[2.2.2]octan-1-yl)methyl)-N-(5-(difluoromethoxy)-[2,4′-bipyridin]-2′-yl)-3-fluorobicyclo[1.1.1]pentane-1-carboxamide] |  | 20 nM
3 | CC(C)(F)c1nc(C23CCC(CN(C(=O)OC(C)(C)C(F)(F)F)c4cc(-c5cnn(CC6COC6)c5)c(F)cn4)(CC2)CC3)no1 [Example 621, 1,1,1-trifluoro-2-methylpropan-2-yl(5-fluoro-4-(1-(oxetan-3-ylmethyl)-1H-pyrazol-4-yl)pyridin-2-yl)((4-(5-(2-fluoropropan-2-yl)-1,2,4-oxadiazol-3-yl)bicyclo[2.2.2]octan-1-yl)methyl)carbamate] | 84 nM | 
4 | CC(C)(C)c1noc(C23CCC(CN(C(=O)C45CC(F)(C4)C5)c4cccc(-c5cnc(C(F)(F)F)nc5)c4)(CC2)CC3)n1 [Example 366, N-((4-(3-(tert-butyl)-1,2,4-oxadiazol-5-yl)bicyclo[2.2.2]octan-1-yl)methyl)-3-fluoro-N-(3-(2-(trifluoromethyl)pyrimidin-5-yl)phenyl)bicyclo[1.1.1]pentane-1-carboxamide] | 454 nM | 
5 | CC(C)(C)c1nc(C23CCC(CN(C(=O)C45CC(F)(C4)C5)c4cncc(-c5ccc6[nH]c(=O)oc6c5)c4)(CC2)CC3)no1 [Example 479, N-((4-(5-(tert-butyl)-1,2,4-oxadiazol-3-yl)bicyclo[2.2.2]octan-1-yl)methyl)-3-fluoro-N-(5-(2-oxo-2,3-dihydrobenzo[d]oxazol-6-yl)pyridin-3-yl)bicyclo[1.1.1]pentane-1-carboxamide] |  | 367 nM
6 | COc1cc(-c2cccc(N(CC34CCC(c5nc(C6CC6)no5)(CC3)OC4)C(=O)C34CC(F)(C3)C4)c2)ccn1 [Example 339, N-((1-(3-cyclopropyl-1,2,4-oxadiazol-5-yl)-2-oxabicyclo[2.2.2]octan-4-yl)methyl)-3-fluoro-N-(3-(2-methoxypyridin-4-yl)phenyl)bicyclo[1.1.1]pentane-1-carboxamide] | 378 nM | 
7 | CS(=O)(=O)Nc1ccc(-c2cccc(N(CC34CCC(c5nnc(C6CC6)o5)(CC3)CC4)C(=O)C34CC(F)(C3)C4)c2)cc1 [Example 344, N-((4-(5-cyclopropyl-1,3,4-oxadiazol-2-yl)bicyclo[2.2.2]octan-1-yl)methyl)-3-fluoro-N-(4′-(methylsulfonamido)-[1,1′-biphenyl]-3-yl)bicyclo[1.1.1]pentane-1-carboxamide] | 293 nM | 
8 | COc1cc(-c2cccc(N(CC34CCC(c5cc(C(F)(F)F)ccn5)(CC3)CC4)C(=O)C3CCC3)c2)ccn1 [Example 240, N-(3-(2-methoxypyridin-4-yl)phenyl)-N-((4-(4-(trifluoromethyl)pyridin-2-yl)bicyclo[2.2.2]octan-1-yl)methyl)cyclobutanecarboxamide] | 2130 nM | 
9 | COc1cc(-c2ccnc(N(CC34CCC(c5nc(C6CC6)no5)(CC3)CC4)C(=O)C34CC(F)(C3)C4)c2)ccn1 [Example 340, N-((4-(3-cyclopropyl-1,2,4-oxadiazol-5-yl)bicyclo[2.2.2]octan-1-yl)methyl)-3-fluoro-N-(2′-methoxy-[4,4′-bipyridin]-2-yl)bicyclo[1.1.1]pentane-1-carboxamide] | 398 nM | 
10 | CC(C)c1nc(C23CCC(CN(C(=O)C45CC(F)(C4)C5)c4cccc(-c5cnc(C(F)(F)F)nc5)c4)(CC2)CC3)no1 [Example 435, 3-fluoro-N-((4-(5-isopropyl-1,2,4-oxadiazol-3-yl)bicyclo[2.2.2]octan-1-yl)methyl)-N-(3-(2-(trifluoromethyl)pyrimidin-5-yl)phenyl)bicyclo[1.1.1]pentane-1-carboxamide] | 240 nM | 
11 | COCc1ccc(-c2cccc(N(CC34CCC(c5nc(C(C)C)no5)(CC3)CC4)C(=O)C34CC(F)(C3)C4)c2)cc1 [Example 392, 3-fluoro-N-((4-(3-isopropyl-1,2,4-oxadiazol-5-yl)bicyclo[2.2.2]octan-1-yl)methyl)-N-(4′-(methoxymethyl)-[1,1′-biphenyl]-3-yl)bicyclo[1.1.1]pentane-1-carboxamide] | 183 nM | 
12 | Cc1nc2c(C)cc(-c3cccc(N(CC45CCC(c6nc(C7CC7)no6)(CC4)CC5)C(=O)C45CC(F)(C4)C5)c3)cn2n1 [Example 265, N-((4-(3-cyclopropyl-1,2,4-oxadiazol-5-yl)bicyclo[2.2.2]octan-1-yl)methyl)-N-(3-(2,8-dimethyl-[1,2,4]triazolo[1,5-a]pyridin-6-yl)phenyl)-3-fluorobicyclo[1.1.1]pentane-1-carboxamide] | 510 nM | 
13 | CCOc1cnc(-c2cccc(N(CC34CCC(c5nc(C(C)(C)C)no5)(CC3)CC4)C(=O)C34CC(F)(C3)C4)c2)nc1 [Example 370, N-((4-(3-(tert-butyl)-1,2,4-oxadiazol-5-yl)bicyclo[2.2.2]octan-1-yl)methyl)-N-(3-(5-ethoxypyrimidin-2-yl)phenyl)-3-fluorobicyclo[1.1.1]pentane-1-carboxamide] | 121 nM | 
14 | CCOc1ncc(-c2cccc(N(CC34CCC(c5nc(C(C)(C)C)no5)(CC3)CC4)C(=O)C3(C)COC3)c2)cn1 [Example 503, N-((4-(3-(tert-butyl)-1,2,4-oxadiazol-5-yl)bicyclo[2.2.2]octan-1-yl)methyl)-N-(3-(2-ethoxypyrimidin-5-yl)phenyl)-3-methyloxetane-3-carboxamide] |  | 1580 nM
15 | N#Cc1cccc(-c2cccc(N(CC34CCC(c5nc(C6CC6)no5)(CC3)CC4)C(=O)C34CC(F)(C3)C4)c2)c1 [Example 258, N-(3′-cyano-[1,1′-biphenyl]-3-yl)-N-((4-(3-cyclopropyl-1,2,4-oxadiazol-5-yl)bicyclo[2.2.2]octan-1-yl)methyl)-3-fluorobicyclo[1.1.1]pentane-1-carboxamide] | 479 nM | 
16 | CCOc1ncc(-c2cccc(N(CC34CCC(c5ccc(C6(C#N)CC6)cc5)(CC3)OC4)C(=O)C34CC(F)(C3)C4)c2)cn1 [Example 352, N-((1-(4-(1-cyanocyclopropyl)phenyl)-2-oxabicyclo[2.2.2]octan-4-yl)methyl)-N-(3-(2-ethoxypyrimidin-5-yl)phenyl)-3-fluorobicyclo[1.1.1]pentane-1-carboxamide] | 167 nM | 
17 | CS(=O)(=O)Nc1ccc(-c2cccc(N(CC34CCC(c5ccc(C6(C#N)CC6)cc5)(CC3)OC4)C(=O)C34CC(F)(C3)C4)c2)cc1 [Example 345, N-((1-(4-(1-Cyanocyclopropyl)phenyl)-2-oxabicyclo[2.2.2]octan-4-yl)methyl)-3-fluoro-N-(4′-(methylsulfonamido)-[1,1′-biphenyl]-3-yl)bicyclo[1.1.1]pentane-1-carboxamide] | 264 nM | 
18 | CC(C)(O)c1ccc(-c2cccc(N(CC34CCC(c5nc(C6CC6)no5)(CC3)CC4)C(=O)OC(C)(C)C(F)(F)F)c2)cc1 [Example 623, 1,1,1-trifluoro-2-methylpropan-2-yl((4-(3-cyclopropyl-1,2,4-oxadiazol-5-yl)bicyclo[2.2.2]octan-1-yl)methyl)(4′-(2-hydroxypropan-2-yl)-[1,1′-biphenyl]-3-yl)carbamate] | 50 nM | 
